Each block holds one molecule with its values, some of them ahead of it.
Experiments:
Type in all cases: cell-based
[1] = target: T1, hFFA2 (Homo sapiens, UniProt O15552); experiment: yeast reporter assay, operational model fit
T1 sequence (O15552 1-330): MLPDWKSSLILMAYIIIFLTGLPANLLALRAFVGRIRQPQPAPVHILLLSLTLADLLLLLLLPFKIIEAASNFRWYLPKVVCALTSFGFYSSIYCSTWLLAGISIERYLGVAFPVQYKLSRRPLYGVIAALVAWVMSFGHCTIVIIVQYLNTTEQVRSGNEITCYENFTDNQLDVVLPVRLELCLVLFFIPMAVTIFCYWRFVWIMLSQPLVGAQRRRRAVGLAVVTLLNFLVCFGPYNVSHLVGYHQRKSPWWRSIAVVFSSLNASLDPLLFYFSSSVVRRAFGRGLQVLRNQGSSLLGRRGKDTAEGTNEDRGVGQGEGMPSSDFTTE

[2] = target: T1, hFFA2; experiment: LANCE cAMP assay, U2OS cells
[3] = target: T1, hFFA2; experiment: yeast FUS1-HIS3 reporter growth assay
[4] = target: T1, hFFA2; experiment: yeast reporter assay, antagonism

Kd [1]: 155 nM
Compound: O=C(O)C[C@H](C(=O)Nc1nc(-c2ccccc2Cl)cs1)c1ccccc1 [compound 9, (S)-4-(4-(2-chlorophenyl)thiazol-2-ylamino)-4-oxo-3-phenylbutanoic acid]

EC50 [2]: 126000 nM
Compound: CC(=O)O [C2, acetate]

IC50 [3]: 186 nM
Compound: CN(C(=O)[C@H]1CCCC[C@H]1C(=O)O)c1nc(-c2ccccc2Cl)cs1 [compound 101, cis-2-((4-(2-chlorophenyl)thiazol-2-yl)(methyl)carbamoyl)cyclohexaneccarboxylic acid]

Kb [4]: 501 nM
Compound: O=C(N[C@@H](Cc1c[nH]c2ccccc12)C(=O)O)c1ccc(Cl)cc1 [N-CBT, N-(4-Chlorobenzoyl)-L-tryptophan]
